Results as given in patent publication US4420482A, “1,4-Bis(acetylsalicyloyloxy)piperizine derivatives” (priority 1980, dated 1983).

How the values were obtained:
[1] = Antipyretic activity, hyperpyrexia induced by intramuscular brewers' yeast; format: in vivo, Sprague Dawley rat; settings: for antipyretic activity: equimolecular doses, S.1528 vs acetylsalicylic acid; for mean temperature decrease: half dosage
[2] = Analgesic activity, pressure-induced pain on paw inflamed by brewers' yeast (test of Randall and Selitto); format: in vivo, Sprague Dawley rat; settings: for Pain sensitivity threshold (g) of inflamed paw: mean of 1 and 2 hr, P < 0.01 vs controls; for analgesic activity: equimolecular doses, S.1528 vs acetylsalicylic acid
Procedure: The analgesic activity of S.1528 was assessed on the sensitivity threshold of pain induced by a pressure exerted on a rat's paw inflamed by application of brewers' yeast (90 Sprague Dawley male rats with a mean bodyweight of 150 g).

[3] = Therapeutic index (ratio between toxic dose and active dose); format: in vivo; settings: 2600:158 for S.1528; 1000:100 for acetylsalicylic acid
[4] = Protective activity on lethal shock induced by inhaled histamine; format: in vivo, guinea-pig; settings: for Protected animals: 20 guinea-pigs; for antihistaminic activity: inhaled histamine shock, guinea-pig
Text: Table 4 points out the protective activity exerted by S.1528 versus the lethal shock induced in the guinea-pig by an inhaled histamine.

[5] = Comparative oral acute toxicity in the mouse; format: in vivo
Text: The new derivative of acetylsalicylic acid, ie S.1528, has been showing a quite mild toxicity associated with marked anti-inflammatory, antipyretic and analgesic activities as well as with an evident anti-histaminic activity. Moreover, unlike acetylsalicylic acid, the new compound appear to be entirely devoid of any gastric injuring effect.

[6] = Paw carrageenin edema in the rat (anti-inflammatory activity); format: in vivo, Sprague Dawley rat; settings: for anti-inflammatory activity: equimolecular doses, S.1528 vs acetylsalicylic acid
Procedure: The anti-inflammatory activity of S.1528 was assessed in the paw carrageenin edema (220 Sprague Dawley male rats with a mean bodyweight of 150 g). […] It should be noted that, in the overall context of the present patent application the term "equimolecular doses" of S.1528 indicates all those doses that contain acetylsalicylic residues in a quantity equivalent to that of acetylsalicylic acid used as reference drug.

[7] = Gastric ulcerogenic effect in the rat; format: in vivo, Sprague Dawley rat; settings: for Incidence of gastric lesions (animals with lesions versus total treated): fasted 36 hours, killed 5 hours later

Compound: CC(=O)Oc1ccccc1C(=O)O [Acetylsalicylic acid, acetylsalicylic acid, reference compound]
- antipyretic activity [1]: quite the same antipyretic activity
- mean temperature decrease ([1]; 75 mg/kg/os): 0.4 degrees centigrades
- Threshold percent increase vs. controls ([2]; 110 mg/kg/os): 36.2%
- Pain sensitivity threshold (g) of inflamed paw ([2]; 110 mg/kg/os): 122.6 ± 7.1 g
- Threshold percent increase vs. controls ([2]; 221 mg/kg/os): 71.2%
- Pain sensitivity threshold (g) of inflamed paw ([2]; 221 mg/kg/os): 154.1 ± 5.7 g
- analgesic activity [2]: quantitatively similar activity
- therapeutic index (ratio between the toxic dose and the active dose) [3]: 10
- Time of resistance ([4]; 110 mg/kg/os): 66 ± 6.3 min
- Protected animals ([4]; 110 mg/kg/os): 0 animals
- Time of resistance ([4]; 221 mg/kg/os): 54 min
- Protected animals ([4]; 221 mg/kg/os): 0 animals
- antihistaminic activity [4]: entirely devoid of any antihistaminic activity
- Mortality observed (7 days) ([5]; 250 mg/kg/os): 0
- Mortality observed (7 days) ([5]; 500 mg/kg/os): 0
- Mortality observed (7 days) ([5]; 750 mg/kg/os): 4/20
- Mortality observed (7 days) ([5]; 1000 mg/kg/os): 10/20
- Mortality observed (7 days) ([5]; 1250 mg/kg/os): 14/20
- Mortality observed (7 days) ([5]; 1500 mg/kg/os): 20/20
- Mortality observed (7 days) ([5]; 1750 mg/kg/os): 10/10
- oral LD 50 ([5]; oral, 10080 min): 1000 mg/kg
- Comparative edema decrease in the various groups of untreated control animals ([6]; 55 mg/kg/os, P ns): -28
- Comparative edema decrease in the various groups of untreated control animals ([6]; 110 mg/kg/os, P <0.01): -44
- Comparative edema decrease in the various groups of untreated control animals ([6]; 221 mg/kg/os, P <0.01): -79
- anti-inflammatory activity [6]: quantitatively superimposable anti-inflammatory activity

Compound: CC(=O)Oc1ccccc1C(=O)OCCN1CCN(CCOC(=O)c2ccccc2OC(C)=O)CC1 [S.1528, 1,4-BIS-[2-(ACETYLSALICYLOYLOXY)ETHYL] PIPERAZINE]
- Mean number of gastric ulcerations (mm) ([7]; 158 mg/kg, os): 0 mm
- Incidence of gastric lesions (animals with lesions versus total treated) ([7]; 158 mg/kg, os): 0/20
- Mean number of gastric ulcerations (mm) ([7]; 317 mg/kg, i.p.): 0 mm
- Incidence of gastric lesions (animals with lesions versus total treated) ([7]; 317 mg/kg, i.p.): 0/20
- Mean number of gastric ulcerations (mm) ([7]; 317 mg/kg, os): 0 mm
- Incidence of gastric lesions (animals with lesions versus total treated) ([7]; 317 mg/kg, os): 0/20
- gastric injuring effect ([7]; equimolecular doses, rat): no gastric injuring effect
- antipyretic activity [1]: quite the same antipyretic activity
- mean temperature decrease ([1]; 118.5 mg/kg/os): 0.4 degrees centigrades
- Threshold percent increase vs. controls ([2]; 158 mg/kg/os): 41.3%
- Pain sensitivity threshold (g) of inflamed paw ([2]; 158 mg/kg/os): 127.2 ± 6.3 g
- Threshold percent increase vs. controls ([2]; 317 mg/kg/os): 69.1%
- Pain sensitivity threshold (g) of inflamed paw ([2]; 317 mg/kg/os): 152.2 ± 8.4 g
- analgesic activity [2]: quantitatively similar activity
- therapeutic index (ratio between the toxic dose and the active dose) [3]: 16.45
- Percent Protection ([4]; 158 mg/kg/os): 60%
- Time of resistance ([4]; 158 mg/kg/os): 523 min
- Protected animals ([4]; 158 mg/kg/os): 12 animals
- Percent Protection ([4]; 317 mg/kg/os): 100%
- Time of resistance ([4]; 317 mg/kg/os): > 720 min
- Protected animals ([4]; 317 mg/kg/os): 20 animals
- ED50 ([4]; Cavia porcellus, read-out: dose that protects 50 percent of the guinea-pigs from the onset of a shock due to histamine): 158 mg/kg
- antihistaminic activity [4]: evident antihistaminic activity
- Mortality observed (7 days) ([5]; 750 mg/kg/os): 0/10
- Mortality observed (7 days) ([5]; 1000 mg/kg/os): 0/10
- Mortality observed (7 days) ([5]; 1500 mg/kg/os): 0/20
- Mortality observed (7 days) ([5]; 1750 mg/kg/os): 0/20
- Mortality observed (7 days) ([5]; 2000 mg/kg/os): 4/20
- Mortality observed (7 days) ([5]; 2250 mg/kg/os): 5/20
- Mortality observed (7 days) ([5]; 2500 mg/kg/os): 8/20
- Mortality observed (7 days) ([5]; 2750 mg/kg/os): 12/20
- Mortality observed (7 days) ([5]; 3000 mg/kg/os): 16/20
- LD50 at 168 h ([5]; in vivo, oral, read-out: oral LD 50): ~2600 mg/kg
- Comparative edema decrease in the various groups of untreated control animals ([6]; 79 mg/kg/os, P ns): -23
- Comparative edema decrease in the various groups of untreated control animals ([6]; 158 mg/kg/os, P <0.01): -52
- Comparative edema decrease in the various groups of untreated control animals ([6]; 317 mg/kg/os, P <0.01): -83
- anti-inflammatory activity [6]: quantitatively superimposable anti-inflammatory activity
